Seven compounds from patent publication US10011571B2, “Preparation method for aromatic heterocyclic compound used as selective JAK3 and/or JAK1 kinase inhibitor and application of aromatic heterocyclic compound” (SHENZHEN CHIPSCREEN BIOSCIENCES, LTD., priority 2014, dated 2018) can be followed below.

One assay deals with CTLL-2 cells. In words: Cell growth activity assay (MTS), CTLL-2 cell model. The class given is cell-based, mouse. The settings on record: Mus musculus, CTLL-2, 300 nM, 24 h, read-out: CTLL-2 % growth rate @300 nM. An excerpt: (§1) MTS assay is a routine method for cell toxicity detection. The basic principle is based on the capacity of dehydrogenase in the mitochondria of living cells to reduce a novel yellow […] MTS to formazan, so that the amount of living cells is proportional to the amount of formazan product by detecting the absorbance at 490 nm (OD), thereby speculating the amount of living cells according to the OD value, and understanding the capacity of the test compound to inhibit the growth of cells or to kill the cells.
In this experiment, mouse T-cell line CTLL-2 was used. The proliferation and growth of this cell line strongly depend on IL-2, and it is commonly used to evaluate the active titer of exogenous IL-2. By inhibiting the activity of kinase JAK1/3, the proliferation of CTLL-2 can be inhibited under in vitro culture. The activation and proliferation of T-cell is also important pathological characteristics for various immunological diseases. Thus, this model is also pathologically related.
By comparing the change of absorbance generated by the cells treated by the test compounds using MTS assay, the growth inhibitory activity of the test compounds on the model cells can be realized, and thereby potential inhibitory activity of the compounds on JAK1/3 pathway can be evaluated.
(§2) MTS is performed according to routine procedure in a 96-well plate.
The model cells are inoculated into each well of the 96-well plate at an appropriate concentration (about 20,000 cells/well). After 24 h, the test compounds are added at different concentration gradients (the highest concentration of 10 μM). A solvent control (DMSO) and a negative control are also performed at the same time. Each experiment is repeated for 3 times. The cells are detected after cultured for another 24 h.
CTLL-2 is a suspended cell. After incubation, 20 μL pre-formulated mixture of MTS and PMS (in a ratio of 20:1) is directly added to each well. After incubation at 37° C. for 2 h, it is then detected by a microplate reader (490 nm).
The effect of the test compound on cell growth is calculated by comparing the change of OD values between the test well and the solvent control well, after subtracting the background of the negative control. For the test compounds at different concentration gradients, the inhibitory rates on the growth of model cells and their half-growth inhibitory concentrations (GI50) are each calculated.
Based on the above method, cytological evaluation is performed to the compounds described herein (for the detection of CTLL-2 cell, the concentration of the test compound is 300 nM; for the detection of HeLa and HUVEC cell, the concentration of the test compound is […]).

The next assay deals with JAK1 (Homo sapiens (Human), UniProt P23458). In words: Z'-LYTE enzymatic activity detection, JAK1. Format: biochemical. The settings on record: test compound 300 nM; for inhibition at 0.3 µM: read-out: JAK1 % inhibitory rate @300 nM. As for the experimental part:
(§3) The basic principle of in vitro enzymatic activity assay is based on the difference between the intensities of fluorescence signals generated at different wavelengths (445 nm and 520 nm) from the phosphorylated substrate and non-phosphorylated substrate, in which the specific fluorescence-labeled substrate is phosphorylated by the kinase. When different test compounds are added, the inhibition of kinase activity is represented as the different degrees of substrate phosphorylation, and thus as the different intensities of fluorescence signal, based on which the inhibitory activity of the compound on the kinase can be calculated. Basic detection principle is illustrated in FIG. 1.
(§4) In an enzymatic inhibitory activity detection, GST-labeled human recombinant JAK kinases, including JAK1/PV4774, JAK2/PV4210, JAK3/PV3855, TYK2/PV4790 and their corresponding specific substrates, including Tyr6 (Z′-LYTE® Kinase Assay Kit-Tyrosine 6 Peptide, JAK1/PV4122), Tyr4 (Z′-LYTE® Kinase Assay Kit-Tyrosine 4 Peptide, JAK2/PV3193), Tyr4 (Z′-LYTE® Kinase Assay Kit-Tyrosine 4 Peptide, JAK3/PV3193), Tyr3 (Z′-LYTE® Kinase Assay Kit-[…], TYK2/PV3192) are used. In all tests, development reagent A (PV3297) was used as the test agent. All materials mentioned above were purchased from Invitrogen.
(§5) (1) Preparation: kinase reaction buffer (working solution) is prepared according to the instruction; a concentration gradient of the test compound is prepared by dilution using the kinase reaction buffer (the highest compound concentration is 10 μM for JAK1, JAK2, and TYK2 detection, and 1 μM for JAK3 detection, respectively).
(§6) (2) 10 μl of reaction system, comprising 2.5 μL test compound, 5 μL kinase reaction buffer and 2.5 μL ATP solution (provided by the kit), is mixed and reaction is performed at room temperature for 1 h.
(§7) (3) Controls, including a solvent control without the test compound, a negative control without ATP and a positive control with the phosphorylated substrate, are tested together with the detection. All tests are carried out in triplicate.
(§8) (4) After the enzymatic reaction, 5 μL pre-formulated development buffer is added, and reaction is performed at room temperature for 1 h. Subsequently, the reaction is terminated by adding 5 μL stop buffer.
(§9) (5) The fluorescence signal in each well is detected by an Ascent Fluoroskan FL reader (Thermo Labsystems) at an excitation wavelength of 400 nm, and emission wavelengths of 445 nm and 520 nm. The proportion of substrate phosphorylation is obtained by reference to the fluorescence signal intensity C445/F520.
(§10) (6) The enzymatic inhibitory rate of the test compound can be calculated based on the following equation: Inhibitory rate (%)=1−the proportion of substrate phosphorylation in the detection well/the proportion of substrate phosphorylation in the solvent control well. The half-inhibitory concentration (IC50) can be calculated using an IC50 calculator based on the inhibitory rates of phosphorylation for the test compounds at different concentration gradients.
(§11) Based on the above method, the compounds described herein are enzymatically evaluated in vitro for JAKs (the concentration of the test compound is 30 nM for JAK3 and JAK2 test, and 300 nM for JAK1 test) using Xeljanz (tofacitinib citrate) as the positive control.

Another assay addresses JAK2 (Homo sapiens (Human), UniProt O60674). In words: Z'-LYTE enzymatic activity detection, JAK2. The class given is biochemical. The following applies: test compound 30 nM; for inhibition at 0.03 µM: read-out: JAK2 % inhibitory rate @30 nM. On the procedure: as §3, §4, §5, §6, §7, §8, §9, §10, §11
The target of a further assay is JAK3 (Homo sapiens (Human), UniProt P52333). The experiment in a line: Z'-LYTE enzymatic activity detection, JAK3. Format: biochemical. The following applies: test compound 30 nM; for inhibition at 0.03 µM: read-out: JAK3 % inhibitory rate @30 nM. On the procedure: as §3, §4, §5, §6, §7, §8, §9, §10, §11
In another assay the test system is HeLa cells. In words: Cell growth activity assay (MTS), HeLa cell model. Format: cell-based, human. On the set-up: activity: dose or concentration left out as unconfirmed. The following applies: Homo sapiens, HeLa, 72 h, read-out: HeLa % growth rate.
Text: as §1
HeLa cell is a human cervical cancer cell line, and belongs to epithelial tumor cell line; HUVEC is a human umbilical vein endothelial cell, and belongs to primary endothelial cell; both types of cells express all subtypes except for JAK3.
The change of JAK kinase activity has no significant influence on other cell types except for the immune cells, and both cell models mentioned above are mainly used to evaluate whether there are any other kinase targets besides JAK kinases or there are nonselective cell toxicities.
In this experiment, a cultured cell model is incubated with the test compounds at different concentrations for a specific duration. The effect of the treatment by the test compound on the growth of cells is detected using MTS assay.
as §2
The model cells are inoculated into each well of the 96-well plate at an appropriate concentration (about 5000 cells/well). After 24 h, the test compounds are added at different concentration gradients (the highest final concentration is 40 μM). A solvent control (DMSO) and a negative control are also performed at the same time. Each experiment is repeated for 3 times. The cells are detected after cultured for another 72 h.
After all culture medium is aspirated out of the well, 100 μL fresh medium and 20 μL pre-formulated mixture of MTS and PMS (in a ratio of 20:1) are added to each well. After incubation at 37° C. for 2 h, it is then detected by a microplate reader (490 nm).
The cell growth inhibitory rate and GI50 of the test compound are calculated as above.
Based on the above method, cytological evaluation is performed to the compounds described herein (for the detection of CTLL-2 cell, the concentration of the test compound is 300 nM; […]).

Chain of JAK2 (O60674 whole entry): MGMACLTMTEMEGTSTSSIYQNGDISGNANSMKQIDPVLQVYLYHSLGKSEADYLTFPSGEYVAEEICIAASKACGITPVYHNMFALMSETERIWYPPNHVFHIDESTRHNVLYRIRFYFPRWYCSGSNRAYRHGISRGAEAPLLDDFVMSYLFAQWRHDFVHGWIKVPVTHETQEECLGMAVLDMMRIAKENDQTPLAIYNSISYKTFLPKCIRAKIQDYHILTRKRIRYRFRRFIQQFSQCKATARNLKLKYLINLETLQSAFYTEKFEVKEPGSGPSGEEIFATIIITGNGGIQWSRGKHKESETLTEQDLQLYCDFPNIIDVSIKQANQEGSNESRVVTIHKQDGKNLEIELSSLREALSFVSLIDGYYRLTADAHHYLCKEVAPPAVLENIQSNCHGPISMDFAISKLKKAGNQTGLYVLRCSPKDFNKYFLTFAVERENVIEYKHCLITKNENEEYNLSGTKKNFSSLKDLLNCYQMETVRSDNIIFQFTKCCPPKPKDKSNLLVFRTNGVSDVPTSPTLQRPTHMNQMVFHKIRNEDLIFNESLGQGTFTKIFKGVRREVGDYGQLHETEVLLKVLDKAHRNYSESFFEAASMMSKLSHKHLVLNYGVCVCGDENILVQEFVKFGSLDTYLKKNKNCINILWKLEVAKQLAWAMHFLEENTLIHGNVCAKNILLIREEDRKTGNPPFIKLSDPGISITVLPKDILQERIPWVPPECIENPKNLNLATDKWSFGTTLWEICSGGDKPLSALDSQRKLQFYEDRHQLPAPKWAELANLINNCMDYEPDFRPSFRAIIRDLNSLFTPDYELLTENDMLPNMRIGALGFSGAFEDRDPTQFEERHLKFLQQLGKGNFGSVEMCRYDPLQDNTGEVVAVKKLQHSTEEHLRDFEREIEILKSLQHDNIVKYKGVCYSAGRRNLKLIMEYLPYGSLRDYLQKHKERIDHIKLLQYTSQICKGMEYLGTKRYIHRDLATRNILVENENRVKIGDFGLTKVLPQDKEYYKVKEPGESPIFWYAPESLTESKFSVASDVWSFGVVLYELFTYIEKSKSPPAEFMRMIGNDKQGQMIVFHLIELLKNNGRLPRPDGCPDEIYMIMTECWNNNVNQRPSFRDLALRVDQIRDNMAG
Chain of JAK3 (P52333 whole entry): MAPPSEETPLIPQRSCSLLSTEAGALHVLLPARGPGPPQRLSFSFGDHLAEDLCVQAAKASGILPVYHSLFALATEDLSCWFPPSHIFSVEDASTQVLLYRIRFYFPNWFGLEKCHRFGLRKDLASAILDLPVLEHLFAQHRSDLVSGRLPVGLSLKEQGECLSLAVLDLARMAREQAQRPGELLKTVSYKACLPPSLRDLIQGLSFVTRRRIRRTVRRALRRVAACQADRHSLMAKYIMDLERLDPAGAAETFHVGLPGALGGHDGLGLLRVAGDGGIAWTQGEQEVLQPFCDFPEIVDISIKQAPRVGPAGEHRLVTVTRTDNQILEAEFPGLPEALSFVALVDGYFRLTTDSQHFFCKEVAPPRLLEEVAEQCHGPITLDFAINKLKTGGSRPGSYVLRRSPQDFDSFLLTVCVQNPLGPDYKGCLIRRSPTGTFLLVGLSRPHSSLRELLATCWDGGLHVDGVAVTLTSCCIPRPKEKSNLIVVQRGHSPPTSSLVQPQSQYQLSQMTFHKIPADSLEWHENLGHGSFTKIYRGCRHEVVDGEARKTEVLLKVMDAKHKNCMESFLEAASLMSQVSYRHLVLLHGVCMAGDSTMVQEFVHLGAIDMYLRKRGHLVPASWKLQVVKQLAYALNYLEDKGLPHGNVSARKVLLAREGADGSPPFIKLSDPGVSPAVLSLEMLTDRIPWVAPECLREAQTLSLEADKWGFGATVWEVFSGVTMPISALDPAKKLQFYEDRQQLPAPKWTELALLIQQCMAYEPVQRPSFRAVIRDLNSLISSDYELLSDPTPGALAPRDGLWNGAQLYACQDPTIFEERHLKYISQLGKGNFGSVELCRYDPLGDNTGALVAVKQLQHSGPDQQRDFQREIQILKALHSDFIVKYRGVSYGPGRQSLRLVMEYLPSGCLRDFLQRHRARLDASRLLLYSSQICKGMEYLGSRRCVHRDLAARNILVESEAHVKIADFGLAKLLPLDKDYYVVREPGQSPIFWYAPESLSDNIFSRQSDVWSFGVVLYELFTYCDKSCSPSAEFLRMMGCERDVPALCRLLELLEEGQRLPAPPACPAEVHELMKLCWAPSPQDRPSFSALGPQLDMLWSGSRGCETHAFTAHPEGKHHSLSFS
Chain of JAK1 (P23458 whole entry): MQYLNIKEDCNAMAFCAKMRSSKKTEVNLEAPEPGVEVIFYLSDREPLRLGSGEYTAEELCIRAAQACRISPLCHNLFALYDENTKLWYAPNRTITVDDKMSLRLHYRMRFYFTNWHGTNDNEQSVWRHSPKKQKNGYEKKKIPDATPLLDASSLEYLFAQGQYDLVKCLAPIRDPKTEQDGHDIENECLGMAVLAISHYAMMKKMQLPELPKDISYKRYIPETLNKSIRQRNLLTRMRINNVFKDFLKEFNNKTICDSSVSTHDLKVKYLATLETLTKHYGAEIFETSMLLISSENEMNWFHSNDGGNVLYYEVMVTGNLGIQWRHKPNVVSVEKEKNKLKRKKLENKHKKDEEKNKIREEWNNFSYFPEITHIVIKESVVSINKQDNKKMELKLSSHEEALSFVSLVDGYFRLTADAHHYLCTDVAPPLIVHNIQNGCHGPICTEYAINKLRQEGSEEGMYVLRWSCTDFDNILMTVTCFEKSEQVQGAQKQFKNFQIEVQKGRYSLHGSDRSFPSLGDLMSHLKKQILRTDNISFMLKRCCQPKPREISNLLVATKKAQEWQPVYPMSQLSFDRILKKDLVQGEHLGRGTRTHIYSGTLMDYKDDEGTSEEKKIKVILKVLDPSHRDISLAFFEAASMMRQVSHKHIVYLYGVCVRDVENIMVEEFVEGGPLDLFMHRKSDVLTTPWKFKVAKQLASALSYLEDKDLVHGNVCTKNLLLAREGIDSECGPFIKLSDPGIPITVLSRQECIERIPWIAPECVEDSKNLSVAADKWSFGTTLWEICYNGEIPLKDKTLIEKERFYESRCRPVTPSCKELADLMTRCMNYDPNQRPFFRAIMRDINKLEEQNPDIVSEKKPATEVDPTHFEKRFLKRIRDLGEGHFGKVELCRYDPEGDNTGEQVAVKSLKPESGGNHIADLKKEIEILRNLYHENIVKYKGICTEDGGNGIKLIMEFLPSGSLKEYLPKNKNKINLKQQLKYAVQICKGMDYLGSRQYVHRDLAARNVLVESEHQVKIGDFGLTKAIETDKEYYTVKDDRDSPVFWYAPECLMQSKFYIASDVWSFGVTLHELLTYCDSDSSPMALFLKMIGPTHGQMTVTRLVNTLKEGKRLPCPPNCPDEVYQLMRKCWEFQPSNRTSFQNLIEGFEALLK

For the compound `C=CC(=O)N(C)c1cc(Nc2ncc(Cl)c(NCCCNC(=O)c3ccc(C)cc3)n2)ccc1F` [Example 83, N-(3-(5-chloro-2-(4-fluoro-3-(N-methylacrylamido)phenylamino)pyrimidinyl-4-amino)propyl)-4-methylbenzamide], in the assay with CTLL-2 cells, the activity at 0.3 µM worked out at 4%. Moreover, on JAK1, the “JAK1 RV (ratio between the inhibitory rate of the test compound and that of Xeljanz)” value worked out at 0.42; the inhibition at 0.3 µM came out at 36%. At JAK2, the “JAK2 RV (ratio between the inhibitory rate of the test compound and that of Xeljanz)” value was 0.04; the inhibition at 0.03 µM turned out to be 2%. Further, on JAK3, the “JAK3 RV (ratio between the inhibitory rate of the test compound and that of Xeljanz)” value was 0.92; the inhibition at 0.03 µM was determined as 76%. In addition, the activity with HeLa cells came out at 70%.
For `C=CC(=O)N(C)c1cc(Nc2ncc(Cl)c(NCCCNC(=O)c3ccccc3)n2)ccc1F` [Example 87, N-(3-(5-chloro-2-(4-fluoro-3-(N-methylacrylamido)phenylamino)pyrimidinyl-4-amino)propyl)benzamide], the activity at 0.3 µM in the assay with CTLL-2 cells came to 3%. Moreover, at JAK1, the “JAK1 RV (ratio between the inhibitory rate of the test compound and that of Xeljanz)” value is recorded as 0.51; the inhibition at 0.3 µM was 43%. For the same compound, on JAK2, the inhibition at 0.03 µM is 0%. Moreover, at JAK3, the “JAK3 RV (ratio between the inhibitory rate of the test compound and that of Xeljanz)” value came out at 0.99; the inhibition at 0.03 µM amounted to 82%. Moreover, in the assay with HeLa cells, the activity turned out to be 22%.
Regarding `C=CC(=O)N(C)c1cc(Nc2ncc(Cl)c(NCCCNC(=O)c3cccc(C(F)(F)F)c3)n2)ccc1F` [Example 91, N-(3-(5-chloro-2-(4-fluoro-3-(N-methylacrylamido)phenylamino)pyrimidinyl-4-amino)propyl)-3-trifluoromethylbenzamide], the activity at 0.3 µM in the assay on CTLL-2 cells is 2%. On JAK1, the “JAK1 RV (ratio between the inhibitory rate of the test compound and that of Xeljanz)” value came to 0.24; the inhibition at 0.3 µM came out at 20%. In addition, the inhibition at 0.03 µM on JAK2 amounted to 0%. Besides, at JAK3, the “JAK3 RV (ratio between the inhibitory rate of the test compound and that of Xeljanz)” value is 0.99; the inhibition at 0.03 µM came out at 82%. In the assay with HeLa cells, the activity worked out at 40%.
As to `C=CC(=O)N(C)c1cc(Nc2ncc(Cl)c(NCCCNC(=O)c3cccc(C#N)c3)n2)ccc1F` [Example 95, N-(3-(5-chloro-2-(4-fluoro-3-(N-methylacrylamido)phenylamino)pyrimidinyl-4-amino)propyl)-3-cyanobenzamide], the activity at 0.3 µM with CTLL-2 cells is 3%. On JAK1, the “JAK1 RV (ratio between the inhibitory rate of the test compound and that of Xeljanz)” value worked out at 0.53; the inhibition at 0.3 µM was 45%. Besides, the inhibition at 0.03 µM on JAK2 came to 0%. Besides, at JAK3, the “JAK3 RV (ratio between the inhibitory rate of the test compound and that of Xeljanz)” value was 1.01; the inhibition at 0.03 µM worked out at 84%. For the same compound, the activity in the assay on HeLa cells amounted to 3%.
Regarding `C=CC(=O)N(C)c1cc(Nc2ncc(Cl)c(NCCCNC(=O)c3ccc(C(F)(F)F)c(F)c3)n2)ccc1F` [Example 103, N-(3-(5-chloro-2-(4-fluoro-3-(N-methylacrylamido)phenylamino)pyrimidinyl-4-amino)propyl)-3-fluoro-4-trifluoromethylbenzamide], the activity at 0.3 µM with CTLL-2 cells turned out to be 3%. On JAK1, the “JAK1 RV (ratio between the inhibitory rate of the test compound and that of Xeljanz)” value stood at 0.87; the inhibition at 0.3 µM was 74%. Moreover, on JAK2, the inhibition at 0.03 µM is 0%. Besides, at JAK3, the “JAK3 RV (ratio between the inhibitory rate of the test compound and that of Xeljanz)” value came out at 1.04; the inhibition at 0.03 µM worked out at 86%. Further, the activity in the assay on HeLa cells amounted to 55%.
For `C=CC(=O)N(C)c1cc(Nc2ncc(Cl)c(NCCCNC(=O)c3cc(F)c(F)c(F)c3F)n2)ccc1F` [Example 107, N-(3-(5-chloro-2-(4-fluoro-3-(N-methylacrylamido)phenylamino)pyrimidinyl-4-amino)propyl)-2,3,4,5-tetrafluorobenzamide], the activity at 0.3 µM with CTLL-2 cells worked out at 2%. Also, on JAK1, the “JAK1 RV (ratio between the inhibitory rate of the test compound and that of Xeljanz)” value came out at 0.79; the inhibition at 0.3 µM amounted to 67%. For the same compound, the inhibition at 0.03 µM at JAK2 was 0%. Also, on JAK3, the “JAK3 RV (ratio between the inhibitory rate of the test compound and that of Xeljanz)” value was determined as 1.01; the inhibition at 0.03 µM was determined as 84%. For the same compound, the activity in the assay on HeLa cells was found to be 59%.
As for `C=CC(=O)N(C)c1cc(Nc2ncc(Cl)c(NCCCNC(=O)c3ccc(C(C)=O)cc3)n2)ccc1F` [Example 111, 4-acetyl-N-(3-(5-chloro-2-(4-fluoro-3-(N-methylacrylamido)phenylamino)pyrimidinyl-4-amino)propyl)benzamide], the activity at 0.3 µM in the assay with CTLL-2 cells is 3%. Further, on JAK1, the “JAK1 RV (ratio between the inhibitory rate of the test compound and that of Xeljanz)” value is on record as 0.19; the inhibition at 0.3 µM stood at 16%. In addition, the inhibition at 0.03 µM at JAK2 was 0%. Further, on JAK3, the “JAK3 RV (ratio between the inhibitory rate of the test compound and that of Xeljanz)” value turned out to be 0.99; the inhibition at 0.03 µM is 82%. Further, the activity in the assay on HeLa cells came out at 67%.
